Common to all, as to format: in vivo
The subject of one series is Rice. The experiment in a line: Transplanted rice safety evaluation. Particulars: 1000 g a.i./ha, transplanted 3 leaf stage japonica rice, treated 5 days after transplantation, 21 days after treatment. Here is the method:
(§1) The above described growth inhibition rate is fresh weight inhibition rate.
In addition, the rice field soil that loaded into the 1/1,000,000 ha pot was leveled to keep water storage at 3-4 cm depth. The 3 leaf stage rice (japonica rice) was transplanted at 3 cm of transplanting depth the next day. The compound of the present invention was treated by the same way after 5 days of transplantation.
The fertility condition of Scirpus juncoides, Sagittaria trifolia and Monochoria vaginalis 14 days after the treatment of the compound of the invention and the fertility condition of rice 21 days after the treatment of the compound of the invention respectively with the naked eye. Evaluate the weed control effect with 0-5 activity standard level.

The next series concerns Japonica rice. The experiment in a line: Post-emergence test experiment, crop selectivity. Particulars: post-emergence spray, 600 g a.i./ha plus water 450 kg/ha, 3 weeks in greenhouse. Here is the method: as §1
(§2) Post-emergence test experiment: Monocotyledonous and dicotyledonous weed seeds and main crop seeds (i. e. wheat, corn, rice, soybean, cotton, oilseed, millet and sorghum.) were put into a plastic pot loaded with soil. Then covered with 0.5-2 cm soil, the seeds were allowed to grow in good greenhouse environment. The test plants were treated at 2-3 leaf stage 2 weeks after sowing. The test compounds of the invention were dissolved with acetone respectively, then added with tween-80, and using 1.5 liters per hectare of an emulsible concentrate of methyl oleate as a synergist, and diluted by certain amount of water to certain concentration. The solution was sprayed to the plants with a sprayer. Then the plants were cultured for 3 weeks in the greenhouse, and the experiment result of weed controlling effect was listed in tables 3-4.

Another series concerns Indica rice. The experiment in a line: Post-emergence test experiment, crop selectivity. The conditions noted are these: post-emergence spray, 600 g a.i./ha plus water 450 kg/ha, 3 weeks in greenhouse. Here is the method: as §1, §2
Series [1] deals with Monocotyledonous and dicotyledonous weed seeds and main crop seeds. Briefly: Post-emergence test experiment (Table 3, 1000 g a.i./ha). The conditions noted are these: 3 weeks in greenhouse, fresh weight inhibition. The method, boiled down:
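Weeds and crops (wheat, corn, rice, soybean, cotton, oilseed, millet, sorghum) grown in soil in the greenhouse and sprayed post-emergence at 2–3 leaf stage, 2 weeks after sowing. Compound in acetone with tween-80 plus methyl oleate emulsible concentrate (1.5 L/ha) as synergist, diluted in water. Fresh weight inhibition scored after 3 weeks.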

Another series deals with Cyperus iria. Briefly: Post-emergence test experiment, weed control. The conditions noted are these: post-emergence spray, 600 g a.i./ha plus water 450 kg/ha, 3 weeks in greenhouse. Here is the method:
as §1, §2

Another series deals with Sagittaria trifolia. Briefly: Weed control effect evaluation in rice field. Particulars: 1000 g a.i./ha, paddy water application at primary leaf stage, 14 days after treatment; weeds resistant to pyrazosulfuron-ethyl and penoxsulam.
Description: as §1
(§3) Transplanted rice safety evaluation and weed control effect evaluation in rice field: Rice field soil was loaded into a 1/1,000,000 ha pot. The seeds of Scirpus juncoides, Sagittaria trifolia and Monochoria vaginalis were sowed and gently covered with soil, then left to stand still in greenhouse in the state of 0.5-1 cm of water storage. The tuber of Sagittaria trifolia was planted in the next day or 2 days later. It was kept at 3-4 cm of water storage thereafter. The weeds were treated by dripping the WP or SC water diluents prepared according to the common preparation method of the compounds of the present invention with pipette homogeneously to achieve specified effective amount when Scirpus juncoides, and Monochoria vaginalis reached 0.5 leaf stage and Sagittaria trifolia reached the time point of primary leaf stage.
(§4) The fertility condition of Scirpus juncoides, Sagittaria trifolia and Monochoria vaginalis 14 days after the treatment of the compound of the invention and the fertility condition of rice 21 days after the treatment of the compound of the invention respectively with the naked eye. Evaluate the weed control effect with 0-5 activity standard level. Many compounds show excellent activity and selectivity.

In another series the test system is Scirpus juncoides. Briefly: Weed control effect evaluation in rice field. The conditions noted are these: 1000 g a.i./ha, paddy water application at 0.5 leaf stage, 14 days after treatment; weeds resistant to pyrazosulfuron-ethyl and penoxsulam.
Description: as §1, §3, §4

Another series has as its system Monochoria Vaginalis. Briefly: Weed control effect evaluation in rice field. The conditions noted are these: 1000 g a.i./ha, paddy water application at 0.5 leaf stage, 14 days after treatment; weeds resistant to pyrazosulfuron-ethyl and penoxsulam.
Description: as §1, §3, §4

SMILES strings stand for the structures.

As to `CC(=NOC(=O)C(C)Oc1nc(F)c(Cl)c(N)c1Cl)c1ccc(Cl)cc1` (stereo not drawn) [Compound 70], the “Safety, 0-5 activity standard level, Rice” value (shortened to “Safety … Rice”) with Rice was 0 (Level 0: the growth inhibition rate is less than 5%). The “Activity level (fresh weight growth inhibition rate), Japonica rice” value in the series on Japonica rice is given as 0 (Level 0: the growth inhibition rate is less than 5%). Also, the “Activity level (fresh weight growth inhibition rate), Indica rice” value in the series with Indica rice is 0 (Level 0: the growth inhibition rate is less than 5%). In series [1], the “Activity level (growth inhibition rate) Digitaria sanguinalis” value is recorded as 5 (Level 5: the growth inhibition rate is greater than 85%), the “Activity level (growth inhibition rate) Echinochloa crusgalli” value is listed as 5 (Level 5: the growth inhibition rate is greater than 85%), the “Activity level (growth inhibition rate) Galium spurium” value was 5 (Level 5: the growth inhibition rate is greater than 85%) and the “Activity level (growth inhibition rate) Leptochloa chinensis” value was 5 (Level 5: the growth inhibition rate is greater than 85%). In series [1], the “Activity level (growth inhibition rate) Monochoria Vaginalis” value is given as 5 (Level 5: the growth inhibition rate is greater than 85%), the “Activity level (growth inhibition rate) Murdannia triquetra” value is given as 5 (Level 5: the growth inhibition rate is greater than 85%) and the “Activity level (growth inhibition rate) Setaria viridis” value is listed as 5 (Level 5: the growth inhibition rate is greater than 85%). The “Activity level (fresh weight growth inhibition rate), Cyperus iria” value in the series on Cyperus iria is given as 5 (Level 5: the growth inhibition rate is greater than 85%). Also, the “Weed control effect, 0-5 activity standard level, Sagittaria trifolia” value (shortened to “Weed control effect … Sagittaria trifolia”) in the series with Sagittaria trifolia was 4 (Level 4: the growth inhibition rate is equal to or greater than 60% and less than 85%). In addition, the “Weed control effect, 0-5 activity standard level, Scirpus juncoides” value (shortened to “Weed control effect … Scirpus juncoides”) with Scirpus juncoides is 4 (Level 4: the growth inhibition rate is equal to or greater than 60% and less than 85%). Moreover, the “Weed control effect, 0-5 activity standard level, Monochoria Vaginalis” value (“Weed control effect … Monochoria Vaginalis” for short) with Monochoria Vaginalis is reported as 5 (Level 5: the growth inhibition rate is greater than 85%).

In the case of `COc1ccccc1C(F)=NOC(=O)C(C)Oc1nc(F)c(Cl)c(N)c1Cl` (stereo not drawn) [Compound 84], the “Safety … Rice” value in the series on Rice is 0 (Level 0: the growth inhibition rate is less than 5%). Moreover, the “Activity level (fresh weight growth inhibition rate), Japonica rice” value with Japonica rice is recorded as 0 (Level 0: the growth inhibition rate is less than 5%). Moreover, in the series with Indica rice, the “Activity level (fresh weight growth inhibition rate), Indica rice” value is reported as 0 (Level 0: the growth inhibition rate is less than 5%). Further, in series [1], the “Activity level (growth inhibition rate) Digitaria sanguinalis” value is 5 (Level 5: the growth inhibition rate is greater than 85%), the “Activity level (growth inhibition rate) Echinochloa crusgalli” value is on record as 5 (Level 5: the growth inhibition rate is greater than 85%), the “Activity level (growth inhibition rate) Galium spurium” value is 5 (Level 5: the growth inhibition rate is greater than 85%) and the “Activity level (growth inhibition rate) Leptochloa chinensis” value is 5 (Level 5: the growth inhibition rate is greater than 85%). In series [1], the “Activity level (growth inhibition rate) Monochoria Vaginalis” value is 5 (Level 5: the growth inhibition rate is greater than 85%), the “Activity level (growth inhibition rate) Murdannia triquetra” value was 5 (Level 5: the growth inhibition rate is greater than 85%) and the “Activity level (growth inhibition rate) Setaria viridis” value is 5 (Level 5: the growth inhibition rate is greater than 85%). For the same molecule, the “Activity level (fresh weight growth inhibition rate), Cyperus iria” value in the series on Cyperus iria is listed as 5 (Level 5: the growth inhibition rate is greater than 85%). Moreover, the “Weed control effect … Sagittaria trifolia” value in the series with Sagittaria trifolia is 4 (Level 4: the growth inhibition rate is equal to or greater than 60% and less than 85%). In addition, the “Weed control effect … Scirpus juncoides” value with Scirpus juncoides is 4 (Level 4: the growth inhibition rate is equal to or greater than 60% and less than 85%). In addition, the “Weed control effect … Monochoria Vaginalis” value with Monochoria Vaginalis is on record as 5 (Level 5: the growth inhibition rate is greater than 85%).

As for `CCOC(=NOC(=O)C(C)Oc1nc(F)c(Cl)c(N)c1Cl)c1ccc(NC(C)=O)cc1` (stereo not drawn) [Compound 88], in the series on Rice, the “Safety … Rice” value was 0 (Level 0: the growth inhibition rate is less than 5%). Besides, in the series with Japonica rice, the “Activity level (fresh weight growth inhibition rate), Japonica rice” value is on record as 0 (Level 0: the growth inhibition rate is less than 5%). In addition, the “Activity level (fresh weight growth inhibition rate), Indica rice” value with Indica rice is given as 0 (Level 0: the growth inhibition rate is less than 5%). Further, in series [1], the “Activity level (growth inhibition rate) Digitaria sanguinalis” value is 5 (Level 5: the growth inhibition rate is greater than 85%), the “Activity level (growth inhibition rate) Echinochloa crusgalli” value is on record as 5 (Level 5: the growth inhibition rate is greater than 85%), the “Activity level (growth inhibition rate) Galium spurium” value is given as 5 (Level 5: the growth inhibition rate is greater than 85%) and the “Activity level (growth inhibition rate) Leptochloa chinensis” value was 5 (Level 5: the growth inhibition rate is greater than 85%). In series [1], the “Activity level (growth inhibition rate) Monochoria Vaginalis” value is recorded as 5 (Level 5: the growth inhibition rate is greater than 85%), the “Activity level (growth inhibition rate) Murdannia triquetra” value is listed as 5 (Level 5: the growth inhibition rate is greater than 85%) and the “Activity level (growth inhibition rate) Setaria viridis” value was 5 (Level 5: the growth inhibition rate is greater than 85%). Besides, the “Activity level (fresh weight growth inhibition rate), Cyperus iria” value with Cyperus iria is reported as 5 (Level 5: the growth inhibition rate is greater than 85%). Further, the “Weed control effect … Sagittaria trifolia” value in the series on Sagittaria trifolia was 4 (Level 4: the growth inhibition rate is equal to or greater than 60% and less than 85%). For the same molecule, the “Weed control effect … Scirpus juncoides” value in the series on Scirpus juncoides was 4 (Level 4: the growth inhibition rate is equal to or greater than 60% and less than 85%). Besides, the “Weed control effect … Monochoria Vaginalis” value with Monochoria Vaginalis is listed as 5 (Level 5: the growth inhibition rate is greater than 85%).

The values above are taken from US12643859B2, “Pyridyl oxycarboxylic acid oxime derivative and preparation method therefor, weeding composition and application thereof” (Qingdao Kingagroot Chemical Compound Co., Ltd., priority 2018, dated 2026).
